Where two headings read alike, the source gives them in different places.
Target: T1, human S1P3 receptor (Homo sapiens, UniProt Q99500)
T1 construct: expressed in transfected cells
Assay: FLIPR calcium (Fluo-4) assay for activation or block of activation of human S1P3 receptor in T24 cells
Assay type: cell-based
Procedure: The compounds of the invention are assessed for their ability to activate or block activation of the human S1P3 receptor in T24 cells stably expressing the human S1P3 receptor using the method described in paragraph [0067] of United States Patent Application Publication No. 20070232682, which published on Oct. 4, 2007, which is hereby incorporated by reference in its entirety.
Ten thousands cells/well are plated into 384-well poly-D-lysine coated plates one day prior to use. The growth media for the S1P3 receptor expressing cell line is McCoy's 5A medium supplemented with 10% charcoal-treated fetal bovine serum (FBS), 1% antibiotic-antimycotic and 400 μg/ml geneticin. On the day of the experiment, the cells are washed twice with Hank's Balanced Salt Solution supplemented with 20 mM HEPES (HBSS/Hepes buffer). The cells are then dye loaded with 2 μM Fluo-4 diluted in the HBSS/Hepes buffer with 1.25 mM Probenecid and incubated at 37° C. for 40 minutes. Extracellular dye is removed by washing the cell plates four times prior to placing the plates in the FLIPR (Fluorometric Imaging Plate Reader, Molecular Devices). Ligands are diluted in HBSS/Hepes buffer and prepared in 384-well microplates. The positive control, Sphingosine-1-phosphate (S1P), is diluted in HBSS/Hepes buffer with 4 mg/ml fatty acid free bovine serum albumin. The FLIPR transfers 12.5 μl from the ligand microplate to the cell plate and takes fluorescent measurements for 75 seconds, taking readings every second, and then for 2.5 minutes, taking readings every 10 seconds. Compounds are tested over the concentration range of 0.61 nM to 10,000 nM. Data for calcium ion (Ca^+2) responses are obtained in arbitrary fluorescence units and not translated into Ca^+2 concentrations. IC50 values (nM) are determined through a […] analysis using the Levenburg Marquardt algorithm.

[1] = T24 cells stably expressing the human S1P3 receptor, tested over 0.61 nM to 10,000 nM
[2] = T24 cells stably expressing the human S1P3 receptor, tested over 0.61 nM to 10,000 nM, read-out: S1P3 IC50

T1 sequence (Q99500 whole entry): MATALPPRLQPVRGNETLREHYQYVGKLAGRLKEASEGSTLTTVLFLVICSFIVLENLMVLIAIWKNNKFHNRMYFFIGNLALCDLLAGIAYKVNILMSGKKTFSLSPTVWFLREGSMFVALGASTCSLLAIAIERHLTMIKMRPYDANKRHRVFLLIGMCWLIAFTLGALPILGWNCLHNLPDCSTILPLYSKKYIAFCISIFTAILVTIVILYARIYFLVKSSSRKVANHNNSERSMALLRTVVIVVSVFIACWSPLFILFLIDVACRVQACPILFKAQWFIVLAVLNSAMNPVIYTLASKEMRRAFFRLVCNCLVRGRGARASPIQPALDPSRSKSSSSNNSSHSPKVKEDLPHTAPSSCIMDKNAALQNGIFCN

| IC50 [2] [µM] | Structure (SMILES) | IC50 [µM] | S1P3 % Inhibition [1] [%] |
| --- | --- | --- | --- |
| – | CSC(=O)Nc1cc2c3c(c1)[C@](C)(c1ccccc1)CCN3CC[C@@]2(C)c1ccccc1 [Compound 583, S-methyl (1S,7S)-1,7-dimethyl-1,7-diphenyl-1,2,3,5,6,7-hexahydropyrido[3,2,1-ij]quinolin-9-ylcarbamothioate] | 0.01 | 98 |
| – | CCCSC(=O)Nc1cc2c3c(c1)[C@@](C)(c1ccccc1)CCN3CC[C@@]2(C)c1ccccc1 [Compound 584, S-propyl (1R,7S)-1,7-dimethyl-1,7-diphenyl-1,2,3,5,6,7-hexahydropyrido[3,2,1-ij]quinolin-9-ylcarbamothioate] | 0.016 | 98 |
| – | CCCSC(=O)Nc1cc2c3c(c1)[C@](C)(c1ccccc1)CCN3CC[C@@]2(C)c1ccccc1 [Compound 585, S-propyl (1S,7S)-1,7-dimethyl-1,7-diphenyl-1,2,3,5,6,7-hexahydropyrido[3,2,1-ij]quinolin-9-ylcarbamothioate] | 0.005 | 98 |
| – | CSC(=O)Nc1cc2c3c(c1)[C@](C)(c1ccc(F)cc1)CCN3CC[C@@]2(C)c1ccc(F)cc1 [Compound 671, S-methyl (1S,7S)-1,7-bis(4-fluorophenyl)-1,7-dimethyl-1,2,3,5,6,7-hexahydropyrido[3,2,1-ij]quinolin-9-ylcarbamothioate] | 0.025 | 97 |
| – | CCCCOC(=O)Nc1cc2c3c(c1)[C@](C)(c1ccc(F)cc1)CCN3CC[C@@]2(C)c1ccc(F)cc1 [Compound 672, butyl (1S,7S)-1,7-bis(4-fluorophenyl)-1,7-dimethyl-1,2,3,5,6,7-hexahydropyrido[3,2,1-ij]quinolin-9-ylcarbamate] | 0.086 | 89 |
| – | CCCSC(=O)Nc1cc2c3c(c1)[C@](C)(c1ccc(F)cc1)CCN3CC[C@@]2(C)c1ccc(F)cc1 [Compound 673, S-propyl (1S,7S)-1,7-bis(4-fluorophenyl)-1,7-dimethyl-1,2,3,5,6,7-hexahydropyrido[3,2,1-ij]quinolin-9-ylcarbamothioate] | 0.062 | 97 |
| – | COC(=O)Nc1cc2c3c(c1)[C@](C)(c1ccc(F)cc1)CCN3CC[C@@]2(C)c1ccc(F)cc1 [Compound 674, methyl (1S,7S)-1,7-bis(4-fluorophenyl)-1,7-dimethyl-1,2,3,5,6,7-hexahydropyrido[3,2,1-ij]quinolin-9-ylcarbamate] | 0.046 | 96 |
| 0.004 | CSC(=O)Nc1cc2c3c(c1)C(c1ccccc1)CCN3CCC2c1ccccc1 (stereo not drawn) [Compound 699] | – | 100 |
| 0.007 | CCCSC(=O)Nc1cc2c3c(c1)C(c1ccccc1)CCN3CCC2c1ccccc1 (stereo not drawn) [Compound 700] | – | 100 |
| – | O=C(NCCCl)Nc1cc2c3c(c1)C(c1ccccc1)CCN3CCC2c1ccccc1 (stereo not drawn) [Compound 769, 1-(2-chloroethyl)-3-(1,7-diphenyl-1,2,3,5,6,7-hexahydropyrido[3,2,1-ij]quinolin-9-yl)urea] | – | 100 |
| – | C=CCNC(=O)Nc1cc2c3c(c1)C(c1ccccc1)CCN3CCC2c1ccccc1 (stereo not drawn) [Compound 773, 1-allyl-3-(1,7-diphenyl-1,2,3,5,6,7-hexahydropyrido[3,2,1-ij]quinolin-9-yl)urea] | – | 100 |
| 0.619 | CNC(=O)c1cc2c3c(c1)C(c1ccccc1)CCN3CCC2c1ccccc1 (stereo not drawn) [Compound 775, N-methyl-1,7-diphenyl-1,2,3,5,6,7-hexahydropyrido[3,2,1-ij]quinoline-9-carboxamide] | – | 100 |
| – | COC(=O)Nc1cc2c3c(c1)C(c1cccc(F)c1)CCN3CCC2c1cccc(F)c1 (stereo not drawn) [Compound 779, Methyl 1,7-bis(3-fluorophenyl)-1,2,3,5,6,7-hexahydropyrido[3,2,1-ij]quinolin-9-ylcarbamate] | – | 101 |
| – | COC(=O)Nc1cc2c3c(c1)[C@](C)(c1ccccc1)CCN3CC[C@@]2(C)c1ccccc1 [Compound 829, methyl (1S,7S)-1,7-dimethyl-1,7-diphenyl-1,2,3,5,6,7-hexahydropyrido[3,2,1-ij]quinolin-9-ylcarbamate] | 0.007 | 97 |
| – | CCOC(=O)Nc1cc2c3c(c1)[C@](C)(c1ccccc1)CCN3CC[C@@]2(C)c1ccccc1 [Compound 941, Ethyl (1S,7S)-1,7-dimethyl-1,7-diphenyl-1,2,3,5,6,7-hexahydropyrido[3,2,1-ij]quinolin-9-ylcarbamate] | 0.013 | 100 |
| – | CCCOC(=O)Nc1cc2c3c(c1)[C@](C)(c1ccccc1)CCN3CC[C@@]2(C)c1ccccc1 [Compound 942, Propyl (1S,7S)-1,7-dimethyl-1,7-diphenyl-1,2,3,5,6,7-hexahydropyrido[3,2,1-ij]quinolin-9-ylcarbamate] | 0.072 | 100 |
| – | CCCCOC(=O)Nc1cc2c3c(c1)[C@](C)(c1ccccc1)CCN3CC[C@@]2(C)c1ccccc1 [Compound 943, Butyl (1S,7S)-1,7-dimethyl-1,7-diphenyl-1,2,3,5,6,7-hexahydropyrido[3,2,1-ij]quinolin-9-ylcarbamate] | 0.075 | 100 |
| – | C[C@@]1(c2ccccc2)CCN2CC[C@@](C)(c3ccccc3)c3cc(NC(=O)OCCF)cc1c32 [Compound 944, 2-fluoroethyl (1S,7S)-1,7-dimethyl-1,7-diphenyl-1,2,3,5,6,7-hexahydropyrido[3,2,1-ij]quinolin-9-ylcarbamate] | 0.027 | 100 |
| – | C[C@@]1(c2ccccc2)CCN2CC[C@@](C)(c3ccccc3)c3cc(NC(=O)OCCCCl)cc1c32 [Compound 945, 3-chloropropyl (1S,7S)-1,7-dimethyl-1,7-diphenyl-1,2,3,5,6,7-hexahydropyrido[3,2,1-ij]quinolin-9-ylcarbamate] | 0.068 | 100 |
| – | O=C(Nc1cc2c3c(c1)C(c1ccccc1)CCN3CCC2c1ccccc1)N1CCOCC1 (stereo not drawn) [Compound 983, N-(1,7-diphenyl-1,2,3,5,6,7-hexahydropyrido[3,2,1-ij]quinolin-9-yl)morpholine-4-carboxamide] | – | 100 |

— patent publication US8431702B2, “Therapeutically useful substituted hydropyrido [3,2,1-ij] quinoline compounds” (Allergan, Inc., priority 2008, dated 2013)
